Results from patent publication US20170190671A1, “BIS(ARYL)CATECHOL DERIVATIVES AS HERBICIDES” (E I DU PONT DE NEMOURS AND COMPANY, priority 2014, published 2017).

What was measured:
Assay in all cases: Test C preemergence
Format in all cases: in vivo
[1] = test system: Italian ryegrass (Lolium multiflorum); details: Lolium multiflorum, pre-emergence, 336 h, scale 0 to 100, read-out: Plant response rating, Ryegrass, Italian
In short: (§1)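 Greenhouse test; preemergence on seeded loam-sand soil or spray on 1- to 4-leaf plants; solvent + surfactant vehicle; 13-15 day hold; visual comparison with controls; 0 (no effect)-100 (complete control).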

[2] = test system: giant foxtail (Setaria faberii); details: Setaria faberi, pre-emergence, 336 h, scale 0 to 100, read-out: Plant response rating, Foxtail, Giant
In short: as §1

[3] = test system: lambsquarters (Chenopodium album); details: Chenopodium album, pre-emergence, 336 h, scale 0 to 100, read-out: Plant response rating, Lambsquarters
In short: as §1

corn (Zea mays) = details: Zea mays, pre-emergence, 336 h, scale 0 to 100
In short: as §1

[4] = test system: waterhemp (common waterhemp, Amaranthus rudis); details: Amaranthus tuberculatus, pre-emergence, scale 0 to 100, read-out: Plant response rating, Waterhemp
In short: as §1

[5] = test system: large (Lg) crabgrass (Digitaria sanguinalis); details: Digitaria sanguinalis, pre-emergence, 336 h, scale 0 to 100, read-out: Plant response rating, Crabgrass, Large
In short: as §1

[6] = test system: ragweed (common ragweed, Ambrosia elatior); details: Ambrosia artemisiifolia, pre-emergence, 336 h, scale 0 to 100, read-out: Plant response rating, Ragweed
In short: as §1

soybean (Glycine max) = details: Glycine max, pre-emergence, scale 0 to 100, read-out: Plant response rating, Soybean
In short: as §1

[7] = test system: winter wheat (Triticum aestivum); details: Triticum aestivum, pre-emergence, 336 h, scale 0 to 100, read-out: Plant response rating, Wheat
In short: as §1

[8] = test system: yellow nutsedge (Cyperus esculentus); details: Cyperus, pre-emergence, 336 h, scale 0 to 100, read-out: Plant response rating, Nutsedge, Yellow
In short: as §1

[9] = test system: morningglory (Ipomoea coccinea); details: Ipomoea, pre-emergence, 336 h, scale 0 to 100, read-out: Plant response rating, Morningglory
In short: as §1

[10] = test system: oilseed rape (Brassica napus); details: Brassica napus, pre-emergence, scale 0 to 100, read-out: Plant response rating, Oilseed Rape
In short: as §1

[11] = test system: pigweed (Amaranthus retroflexus); details: Amaranthus retroflexus, pre-emergence, 336 h, scale 0 to 100, read-out: Plant response rating, Pigweed
In short: as §1

[12] = test system: velvetleaf (Abutilon theophrasti); details: Abutilon theophrasti, pre-emergence, scale 0 to 100, read-out: Plant response rating, Velvetleaf
In short: as §1

[13] = test system: blackgrass (Alopecurus myosuroides); details: Alopecurus myosuroides, pre-emergence, 336 h, scale 0 to 100, read-out: Plant response rating, Blackgrass
In short: as §1

N#Cc1cccc(Oc2ncc(C(F)(F)F)cn2)c1Oc1ncc(Cl)cn1 [Compound 39, 2-[(5-chloro-2-pyrimidinyl)oxy]-3-[[5-(trifluoromethyl)-2-pyrimidinyl]oxy]-benzonitrile]
35%: plant injury at 16 g/ha (soybean (Glycine max); Preemergence, 16 g ai/ha)
20%: pest or weed control at 31 g/ha ([1]; 31 g ai/ha, preemergence) | pest or weed control at 31 g/ha ([8]; 31 g ai/ha, preemergence)
45%: Corn plant response rating (crop injury, 0 = no effect, 100 = complete kill) at 62 g/ha (corn (Zea mays); 62 g ai/ha, preemergence) | pest or weed control at 16 g/ha ([9]; Preemergence, 16 g ai/ha)
55%: pest or weed control at 16 g/ha ([2]; Preemergence, 16 g ai/ha)
65%: pest or weed control at 62 g/ha ([6]; 62 g ai/ha, preemergence) | plant injury at 31 g/ha (soybean (Glycine max); 31 g ai/ha, preemergence)
60%: pest or weed control at 16 g/ha ([3]; Preemergence, 16 g ai/ha) | plant injury at 125 g/ha ([7]; 125 g ai/ha, preemergence)
90%: pest or weed control at 125 g/ha ([1]; 125 g ai/ha, preemergence) | pest or weed control at 31 g/ha ([3]; 31 g ai/ha, preemergence) | plant injury at 31 g/ha ([10]; 31 g ai/ha, preemergence) | pest or weed control at 62 g/ha ([13]; 62 g ai/ha, preemergence) | pest or weed control at 125 g/ha ([13]; 125 g ai/ha, preemergence)
0%: pest or weed control at 16 g/ha ([1]; Preemergence, 16 g ai/ha) | plant injury at 31 g/ha ([7]; 31 g ai/ha, preemergence) | plant injury at 16 g/ha ([7]; Preemergence, 16 g ai/ha) | pest or weed control at 16 g/ha ([8]; Preemergence, 16 g ai/ha) | pest or weed control at 16 g/ha ([13]; Preemergence, 16 g ai/ha)
80%: pest or weed control at 31 g/ha ([9]; 31 g ai/ha, preemergence) | plant injury at 16 g/ha ([10]; Preemergence, 16 g ai/ha)
5%: Corn plant response rating (crop injury, 0 = no effect, 100 = complete kill) at 16 g/ha (corn (Zea mays); Preemergence, 16 g ai/ha)
100%: pest or weed control at 62 g/ha ([2]; 62 g ai/ha, preemergence) | pest or weed control at 125 g/ha ([2]; 125 g ai/ha, preemergence) | pest or weed control at 31 g/ha ([4]; 31 g ai/ha, preemergence) | pest or weed control at 62 g/ha ([4]; 62 g ai/ha, preemergence) | pest or weed control at 125 g/ha ([4]; 125 g ai/ha, preemergence) | pest or weed control at 16 g/ha ([4]; Preemergence, 16 g ai/ha) | pest or weed control at 31 g/ha ([5]; 31 g ai/ha, preemergence) | pest or weed control at 62 g/ha ([5]; 62 g ai/ha, preemergence) | pest or weed control at 125 g/ha ([5]; 125 g ai/ha, preemergence) | pest or weed control at 16 g/ha ([5]; Preemergence, 16 g ai/ha) | pest or weed control at 125 g/ha ([9]; 125 g ai/ha, preemergence) | plant injury at 62 g/ha ([10]; 62 g ai/ha, preemergence) | plant injury at 125 g/ha ([10]; 125 g ai/ha, preemergence) | pest or weed control at 62 g/ha ([11]; 62 g ai/ha, preemergence) | pest or weed control at 125 g/ha ([11]; 125 g ai/ha, preemergence) | pest or weed control at 16 g/ha ([11]; Preemergence, 16 g ai/ha) | pest or weed control at 62 g/ha ([12]; 62 g ai/ha, preemergence) | pest or weed control at 125 g/ha ([12]; 125 g ai/ha, preemergence)
98%: pest or weed control at 62 g/ha ([3]; 62 g ai/ha, preemergence) | pest or weed control at 62 g/ha ([9]; 62 g ai/ha, preemergence) | pest or weed control at 31 g/ha ([11]; 31 g ai/ha, preemergence)
30%: plant injury at 62 g/ha ([7]; 62 g ai/ha, preemergence)
85%: Corn plant response rating (crop injury, 0 = no effect, 100 = complete kill) at 125 g/ha (corn (Zea mays); 125 g ai/ha, preemergence) | pest or weed control at 125 g/ha ([6]; 125 g ai/ha, preemergence) | plant injury at 62 g/ha (soybean (Glycine max); 62 g ai/ha, preemergence) | pest or weed control at 62 g/ha ([8]; 62 g ai/ha, preemergence) | pest or weed control at 125 g/ha ([8]; 125 g ai/ha, preemergence)
40%: Corn plant response rating (crop injury, 0 = no effect, 100 = complete kill) at 31 g/ha (corn (Zea mays); 31 g ai/ha, preemergence) | pest or weed control at 31 g/ha ([6]; 31 g ai/ha, preemergence) | pest or weed control at 16 g/ha ([12]; Preemergence, 16 g ai/ha)
75%: pest or weed control at 62 g/ha ([1]; 62 g ai/ha, preemergence) | pest or weed control at 31 g/ha ([12]; 31 g ai/ha, preemergence)
15%: pest or weed control at 16 g/ha ([6]; Preemergence, 16 g ai/ha)
95%: pest or weed control at 31 g/ha ([2]; 31 g ai/ha, preemergence) | pest or weed control at 125 g/ha ([3]; 125 g ai/ha, preemergence) | plant injury at 125 g/ha (soybean (Glycine max); 125 g ai/ha, preemergence)
50%: pest or weed control at 31 g/ha ([13]; 31 g ai/ha, preemergence)
